According to ChEMBL document CHEMBL1201862, “PubChem BioAssay data set” (2004):
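Exposure lasted 48 hours, with cells grown in 96-well plates and compounds tested at five concentrations. GI50 marks 50% less growth.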 Activity calls are given as the source filed them. No stated cut-off is given here; in the data, active = GI50 up to about 1.1 µM and inactive = higher. Non-standard residues stand in square brackets, D forms with d. Residues, ends and D or L forms follow the SMILES beside them. ξ: configuration not given here. *: point of attachment. X18 = COC1=CC(=O)N(C(=O)C(O*)C(C)C)C1Cc1ccccc1; ξNMe2Val = CC(C)C(C(=O)*)N(C)C; NMeV = CN[CH](C(=O)O)C(C)C

Experiments:
Assay in all cases: growth of human tumour cells (NCI), 48 h
CAKI-1 = system: CAKI-1
CCRF-CEM = system: CCRF-CEM
COLO 205 = system: COLO 205
EKVX = system: EKVX
HCT-15 = system: HCT-15
HL-60 = system: HL-60
HOP-18 = system: HOP-18
HOP-62 = system: HOP-62
HOP-92 = system: HOP-92
HT-29 = system: HT-29
K562 = system: K562
NCI-H460 = system: NCI-H460
OVCAR-4 = system: OVCAR-4
OVCAR-5 = system: OVCAR-5
RXF 393 = system: RXF 393
SF-539 = system: SF-539
SK-MEL-5 = system: SK-MEL-5
SNB-78 = system: SNB-78
SR = system: SR
TK-10 = system: TK-10

SMILES	GI50 (CAKI-1)	GI50 (CCRF-CEM)	GI50 (COLO 205)	GI50 (EKVX)	GI50 (HCT-15) [µM]	GI50 (HL-60)	GI50 (HOP-18)	GI50 (HOP-62)	GI50 (HOP-92)	GI50 (HT-29)	GI50 (K562)	GI50 (NCI-H460)	GI50 (OVCAR-4)	GI50 (OVCAR-5)	GI50 (RXF 393)	GI50 (SF-539)	GI50 (SK-MEL-5)	GI50 (SNB-78)	GI50 (SR)	GI50 (TK-10)
O=C(N/C(=C\c1cccc([N+](=O)[O-])c1)c1nc2c(O)nc(S)nc2[nH]1)c1ccccc1	> 100 µM (inactive)	> 100 µM (inactive)	> 100 µM (inactive)	> 100 µM (inactive)	> 100	69.3 µM (inactive)	> 100 µM (inactive)	> 100 µM (inactive)	> 100 µM (inactive)	> 100 µM (inactive)	> 100 µM (inactive)	> 100 µM (inactive)	> 100 µM (inactive)	> 100 µM (inactive)	45.5 µM (inactive)	> 100 µM (inactive)	> 100 µM (inactive)	> 100 µM (inactive)	> 100 µM (inactive)	–
COC(=O)C(Cc1nc2ccc(Cl)cc2nc1O)C(=O)C(=O)Nc1ccccc1[N+](=O)[O-] (stereo not drawn)	> 100 µM (inactive)	> 100 µM (inactive)	> 100 µM (inactive)	7.8 µM (inactive)	> 100	> 100 µM (inactive)	93.8 µM (inactive)	> 100 µM (inactive)	–	> 100 µM (inactive)	> 100 µM (inactive)	> 100 µM (inactive)	> 100 µM (inactive)	> 100 µM (inactive)	> 100 µM (inactive)	> 100 µM (inactive)	> 100 µM (inactive)	> 100 µM (inactive)	> 100 µM (inactive)	> 100 µM (inactive)
CC(SC1=CC(=O)c2c(Cl)ccc(O)c2C1=O)C(=O)O (stereo not drawn)	–	5.25 µM (inactive)	21.3 µM (inactive)	21.3 µM (inactive)	17.1	2.79 µM (inactive)	27.5 µM (inactive)	–	21.6 µM (inactive)	> 10 µM (inactive)	18.7 µM (inactive)	26.6 µM (inactive)	–	–	> 10 µM (inactive)	18.3 µM (inactive)	14.3 µM (inactive)	12.6 µM (inactive)	6.56 µM (inactive)	20.7 µM (inactive)
CCCOc1nc(N)c2cnn(C3CCCCO3)c2n1 (stereo not drawn)	> 100 µM (inactive)	> 100 µM (inactive)	> 100 µM (inactive)	> 100 µM (inactive)	> 100	> 100 µM (inactive)	68.9 µM (inactive)	> 100 µM (inactive)	> 100 µM (inactive)	> 100 µM (inactive)	> 100 µM (inactive)	> 100 µM (inactive)	> 100 µM (inactive)	> 100 µM (inactive)	> 100 µM (inactive)	> 100 µM (inactive)	> 100 µM (inactive)	> 100 µM (inactive)	> 100 µM (inactive)	–
COC1=CC(=O)N(C(=O)C(OC(=O)C2CCCN2C(=O)C2CCCN2C(=O)C(C(C)C)N(C)C(=O)C(NC(=O)C(C(C)C)N(C)C)C(C)C)C(C)C)C1Cc1ccccc1 (stereo not drawn) (ξNMe2Val-V[NMeV]PP-X18; configuration not given here)	0.00103 µM (active)	0.000309 µM (active)	0.00163 µM (active)	0.00242 µM (active)	0.0014	0.000171 µM (active)	< 0.01 µM (active)	0.00461 µM (active)	0.00294 µM (active)	0.000573 µM (active)	0.000349 µM (active)	0.00158 µM (active)	0.00826 µM (active)	< 0.01 µM (active)	0.00164 µM (active)	0.00135 µM (active)	0.00109 µM (active)	0.00244 µM (active)	0.000251 µM (active)	0.00682 µM (active)
